Measurements published in patent publication US5688787A, “Substituted β-lactam compounds useful as hypochlesterolemic agents and processes for the preparation thereof” (priority 1996, dated 1997).
pIC50: −log10 of the molar value. Read-outs that look alike come from different tables or passages of the source.

What was measured:
Hyperlipidemic Hamster = experiment: In Vivo Assay of Hypolipidemic Agents Using the Hyperlipidemic Hamster; settings: Mesocricetus auratus, po, 168 h, 7 days, percent change versus control, negative = lowering; for change in vivo at 50 mg/kg: 50 mg/kg once daily oral; for change in vivo at 25 mg/kg: 25 mg/kg once daily oral
In short: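 Hamsters, six per group, were fed chow with 0.5% cholesterol for seven days and given compound once daily by oral gavage in corn oil; controls received corn oil alone. Plasma (EDTA) and liver lipids were measured at sacrifice. Values are percent change versus control, so negative means lowering.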

ACAT = target: T1, ACAT (Rattus norvegicus, UniProt Q7TQM4); experiment: ACAT Assay (in vitro); assay type: biochemical; settings: for inhibition at 10 µM: Conc. 10 µM, negative = apparent stimulation, read-out: ACAT (in vitro) % Inhib.; for pIC50: rat liver microsomes, read-out: ACAT (in vitro) IC50
T1 construct: Rat liver microsomes are used as the source of ACAT; from tissue; host or cells: rat liver microsomes
T1 sequence (Q7TQM4 1-524): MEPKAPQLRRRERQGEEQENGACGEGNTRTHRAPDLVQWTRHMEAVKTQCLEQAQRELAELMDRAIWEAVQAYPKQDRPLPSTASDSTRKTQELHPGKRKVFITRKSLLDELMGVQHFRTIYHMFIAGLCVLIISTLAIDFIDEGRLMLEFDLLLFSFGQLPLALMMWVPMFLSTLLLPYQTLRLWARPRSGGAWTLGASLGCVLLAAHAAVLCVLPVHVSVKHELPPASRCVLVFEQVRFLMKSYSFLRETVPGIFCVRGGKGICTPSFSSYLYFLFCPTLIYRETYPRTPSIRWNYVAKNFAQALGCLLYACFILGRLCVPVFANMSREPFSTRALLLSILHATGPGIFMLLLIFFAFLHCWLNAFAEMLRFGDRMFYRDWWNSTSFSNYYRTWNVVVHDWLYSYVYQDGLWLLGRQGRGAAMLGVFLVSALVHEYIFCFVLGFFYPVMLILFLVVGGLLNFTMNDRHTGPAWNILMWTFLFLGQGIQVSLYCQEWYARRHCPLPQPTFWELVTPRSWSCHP
Method: This assay measures the activity of ACAT by measuring the ACAT-mediated transfer of tritiated oleic acid from acyl-CoA to cholesterol to give labelled cholesteryl oleate. Rat liver microsomes are used as the source of ACAT. Assays are performed in round bottom microtiterplates using a total incubation volume of 50 μL. […] The microtiterplate is then floated on the surface of a 37° C. water bath for fifteen minutes. Incubations are started by the addition of 3 μL ^3 H-acyl CoA (1 μCi/well, final concentration of 10 μM acyl CoA). The plate is then returned to the water bath for 15 minutes. The incubations are then terminated by application of 15 μL from each incubation to individual lanes on a thin layer plate (Silica Gel GF 20×20 cm). Standards are applied to several lanes so that the cholesteryl ester band can be identified. After drying, the plates am eluted with 90:10:1 petroleum ether:diethyl ether:acetic acid. The standards am visualized via iodine vapor, and the regions corresponding to cholesteryl ester are scraped into 7 mL scintillation vials. 4 mL of scintillant are added to each vial, and the radioactivity quantified. Background count is determined by the boiled controls. Full activity is determined by activity in the presence of vehicle. The percent inhibition is calculated by subtracting the background from both control and test samples, and the test value is calculated as a percentage of the control.
For the in vitro ACAT data, negative percent inhibition denotes apparent stimulation,while positive numbers denote inhibition.

[1] = read-out: % Reduction (in vivo) Cholest. Esters
[2] = read-out: % Reduction (in vivo) Serum Cholest.

CCOc1ccc([C@@H]2[C@@H](CCCc3ccccc3)C(=O)N2c2ccc(OC)cc2)cc1 (relative stereo) [Example 5S]
change in vivo at 50 mg/kg (Hyperlipidemic Hamster; [1]): -98%
change in vivo at 50 mg/kg (Hyperlipidemic Hamster; [2]): -52%
inhibition at 10 µM (ACAT): 28%

COc1ccc([C@@H]2[C@@H](CCOc3ccccc3)C(=O)N2c2ccc(OC)cc2)cc1 (relative stereo) [Example 5X]
change in vivo at 50 mg/kg (Hyperlipidemic Hamster; [1]): -39%
change in vivo at 50 mg/kg (Hyperlipidemic Hamster; [2]): 0%
inhibition at 10 µM (ACAT): 38%

CC[C@@]1(CCCc2ccccc2)C(=O)N(c2ccc(OC)cc2)[C@H]1CCc1ccccc1 (relative stereo) [Example 6]
change in vivo at 50 mg/kg (Hyperlipidemic Hamster; [1]): 0%
change in vivo at 50 mg/kg (Hyperlipidemic Hamster; [2]): 14%
inhibition at 10 µM (ACAT): 59%
pIC50 (ACAT): 5.30

COc1ccc([C@@H]2N(c3ccc(OC)cc3)C(=O)[C@@]2(c2ccccc2)C2CCCC2)cc1 (relative stereo) [Example 7AD]
change in vivo at 50 mg/kg (Hyperlipidemic Hamster; [1]): -12%
change in vivo at 50 mg/kg (Hyperlipidemic Hamster; [2]): -12%
inhibition at 10 µM (ACAT): -22%

COc1ccc([C@@H]2[C@H](OCCc3ccccc3)C(=O)N2c2ccc(OC)cc2)cc1 (relative stereo) [Example 7AE]
change in vivo at 50 mg/kg (Hyperlipidemic Hamster; [1]): -10%
change in vivo at 50 mg/kg (Hyperlipidemic Hamster; [2]): -17%
inhibition at 10 µM (ACAT): -95%

COc1ccc([C@@H]2N(c3ccc(OC)cc3)C(=O)[C@]2(Cc2ccccc2)c2ccccc2)cc1 (relative stereo) [Example 7AF]
change in vivo at 50 mg/kg (Hyperlipidemic Hamster; [1]): -15%
change in vivo at 50 mg/kg (Hyperlipidemic Hamster; [2]): 23%
inhibition at 10 µM (ACAT): 53%

COc1ccc([C@@H]2N(c3ccc(OC)cc3)C(=O)[C@@]2(Cc2ccccc2)c2ccccc2)cc1 (relative stereo) [Example 7AH]
change in vivo at 50 mg/kg (Hyperlipidemic Hamster; [1]): 16%
change in vivo at 50 mg/kg (Hyperlipidemic Hamster; [2]): 16%
inhibition at 10 µM (ACAT): -5%

CC[C@@H]1C(=O)N(c2ccc(OC)cc2)[C@H]1c1ccc(N)cc1 (relative stereo) [Example 8A]
change in vivo at 50 mg/kg (Hyperlipidemic Hamster; [1]): 0%
change in vivo at 50 mg/kg (Hyperlipidemic Hamster; [2]): 0%
inhibition at 10 µM (ACAT): -17%

COc1ccc(N2C(=O)[C@@H](CCCc3ccccc3)[C@H]2c2ccc(N)cc2)cc1 (relative stereo) [Example 8B]
change in vivo at 50 mg/kg (Hyperlipidemic Hamster; [1]): -35%
change in vivo at 50 mg/kg (Hyperlipidemic Hamster; [2]): -9%
inhibition at 10 µM (ACAT): -5%

COc1ccc(N2C(=O)[C@H](CCCc3ccccc3)[C@H]2c2ccc(N)cc2)cc1 (relative stereo) [Example 8C]
change in vivo at 50 mg/kg (Hyperlipidemic Hamster; [1]): 0%
change in vivo at 50 mg/kg (Hyperlipidemic Hamster; [2]): 0%
inhibition at 10 µM (ACAT): 63%

COc1ccc(N2C(=O)[C@H](CCCc3ccccc3)[C@H]2c2ccc(O)cc2)cc1 (relative stereo) [Example 8F]
change in vivo at 25 mg/kg (Hyperlipidemic Hamster; [1]): -45%
change in vivo at 25 mg/kg (Hyperlipidemic Hamster; [2]): -20%
change in vivo at 50 mg/kg (Hyperlipidemic Hamster; [1]): -48%
change in vivo at 50 mg/kg (Hyperlipidemic Hamster; [2]): -16%
inhibition at 10 µM (ACAT): 8%

COc1ccc([C@@H]2[C@@H](CCCc3ccccc3)C(=O)N2c2ccc(O)cc2)cc1 (relative stereo) [Example 10A]
change in vivo at 50 mg/kg (Hyperlipidemic Hamster; [1]): -58%
change in vivo at 50 mg/kg (Hyperlipidemic Hamster; [2]): -19%
inhibition at 10 µM (ACAT): -37%

COc1ccc(N2C(=O)[C@@H](CCCc3ccccc3)[C@H]2c2ccc(CO)cc2)cc1 (relative stereo) [Example 15A]
change in vivo at 50 mg/kg (Hyperlipidemic Hamster; [1]): 0%
change in vivo at 50 mg/kg (Hyperlipidemic Hamster; [2]): 0%
inhibition at 10 µM (ACAT): 2%

COc1ccc([C@@H]2[C@H](CCCc3ccccc3)C(=O)N2c2ccc(O)cc2)cc1 (relative stereo) [Example 15B]
change in vivo at 50 mg/kg (Hyperlipidemic Hamster; [1]): -18%
change in vivo at 50 mg/kg (Hyperlipidemic Hamster; [2]): 0%
inhibition at 10 µM (ACAT): -55%

COc1ccc(N2C(=O)[C@@H](CCCc3ccccc3)[C@@H]2c2ccc(CO)cc2)cc1 (relative stereo) [Example 15]
change in vivo at 50 mg/kg (Hyperlipidemic Hamster; [1]): -46%
change in vivo at 50 mg/kg (Hyperlipidemic Hamster; [2]): -21%
inhibition at 10 µM (ACAT): -6%

COc1ccc(N2C(=O)[C@H](CCCc3ccccc3)[C@H]2c2ccc(C=O)cc2)cc1 (relative stereo) [Example 16A]
change in vivo at 50 mg/kg (Hyperlipidemic Hamster; [1]): -53%
change in vivo at 50 mg/kg (Hyperlipidemic Hamster; [2]): -30%
inhibition at 10 µM (ACAT): 55%

COc1ccc(N2C(=O)[C@@H](CCCc3ccccc3)[C@H]2c2ccc(C=O)cc2)cc1 (relative stereo) [Example 16]
change in vivo at 50 mg/kg (Hyperlipidemic Hamster; [1]): -29%
change in vivo at 50 mg/kg (Hyperlipidemic Hamster; [2]): -25%
inhibition at 10 µM (ACAT): 42%

COc1ccc(N2C(=O)[C@@H](CCCc3ccccc3)[C@H]2c2ccc(S(C)(=O)=O)cc2)cc1 (relative stereo) [Example 17A]
change in vivo at 50 mg/kg (Hyperlipidemic Hamster; [1]): -25%
change in vivo at 50 mg/kg (Hyperlipidemic Hamster; [2]): -11%
inhibition at 10 µM (ACAT): 38%

COc1ccc(N2C(=O)[C@@H](CCCc3ccccc3)[C@H]2c2ccc([S+](C)[O-])cc2)cc1 (relative stereo) [Example 17]
change in vivo at 50 mg/kg (Hyperlipidemic Hamster; [1]): -52%
change in vivo at 50 mg/kg (Hyperlipidemic Hamster; [2]): -17%
inhibition at 10 µM (ACAT): 25%

COc1ccc(N2C(=O)[C@@H](CCCc3ccccc3)[C@H]2c2ccc(CN3CCOCC3)cc2)cc1 (relative stereo) [Example 19A]
change in vivo at 50 mg/kg (Hyperlipidemic Hamster; [1]): -34%
change in vivo at 50 mg/kg (Hyperlipidemic Hamster; [2]): -20%
inhibition at 10 µM (ACAT): 64%

COc1ccc(N2C(=O)[C@H](CCCc3ccccc3)[C@@H]2c2ccc(CN3CCN(C)CC3)cc2)cc1 (relative stereo) [Example 19B]
change in vivo at 50 mg/kg (Hyperlipidemic Hamster; [1]): -31%
change in vivo at 50 mg/kg (Hyperlipidemic Hamster; [2]): -26%
inhibition at 10 µM (ACAT): 53%

COc1ccc(N2C(=O)[C@H](CCCc3ccccc3)[C@H]2c2ccc(CN3CCOCC3)cc2)cc1 (relative stereo) [Example 19]
change in vivo at 50 mg/kg (Hyperlipidemic Hamster; [1]): -51%
change in vivo at 50 mg/kg (Hyperlipidemic Hamster; [2]): -20%
inhibition at 10 µM (ACAT): 24%

CCOc1ccc(N2C(=O)[C@H](CCCc3ccccc3)[C@@H]2c2ccc(OC)cc2)cc1 (relative stereo) [Example 35B]
change in vivo at 50 mg/kg (Hyperlipidemic Hamster; [1]): -99%
change in vivo at 50 mg/kg (Hyperlipidemic Hamster; [2]): -53%
inhibition at 10 µM (ACAT): 65%

COc1ccc([C@H]2[C@@H](CCCc3ccccc3)C(=O)N2c2ccc(OCc3ccccc3)cc2)cc1 (relative stereo) [Example 35]
change in vivo at 50 mg/kg (Hyperlipidemic Hamster; [1]): -32%
change in vivo at 50 mg/kg (Hyperlipidemic Hamster; [2]): -15%
inhibition at 10 µM (ACAT): 18%

CCCCCCCCCC[C@]1(CC)C(=O)N(c2ccc(OC)cc2)[C@H]1c1ccccc1 (stereo in doubt) [Example 3Q]
change in vivo at 50 mg/kg (Hyperlipidemic Hamster; [1]): 0%
change in vivo at 50 mg/kg (Hyperlipidemic Hamster; [2]): -6%
inhibition at 10 µM (ACAT): 3%

COc1ccc(N2C(=O)C(c3ccccc3)(C3CCCC3)C2c2ccccc2)cc1 (stereo not shown) [Example 1AC]
change in vivo at 50 mg/kg (Hyperlipidemic Hamster; [1]): -33%
change in vivo at 50 mg/kg (Hyperlipidemic Hamster; [2]): -16%
inhibition at 10 µM (ACAT): 40%

COc1cc(OC)c(N2C(=O)C(CCCc3ccccc3)C2c2ccccc2)c(OC)c1 (stereo not shown) [Example 1F]
change in vivo at 50 mg/kg (Hyperlipidemic Hamster; [1]): 20%
change in vivo at 50 mg/kg (Hyperlipidemic Hamster; [2]): 0%
inhibition at 10 µM (ACAT): 61%

CCCCCCCCCCC1C(=O)N(c2c(OC)cc(OC)cc2OC)C1c1ccccc1 (stereo not shown) [Example 1U]
change in vivo at 50 mg/kg (Hyperlipidemic Hamster; [1]): 0%
change in vivo at 50 mg/kg (Hyperlipidemic Hamster; [2]): 0%
inhibition at 10 µM (ACAT): 58%
pIC50 (ACAT): 4.72

COc1ccc(N2C(=O)C(CCCc3ccccc3)(CCCc3ccccc3)C2C=Cc2ccccc2)cc1 (stereo not shown) [Example 3N]
change in vivo at 50 mg/kg (Hyperlipidemic Hamster; [1]): 0%
change in vivo at 50 mg/kg (Hyperlipidemic Hamster; [2]): 0%
inhibition at 10 µM (ACAT): 62%

COc1ccc(C2N(c3ccc(OC)cc3)C(=O)C2(c2ccccc2)c2ccccc2)cc1 (stereo not shown) [Example 7AC]
change in vivo at 50 mg/kg (Hyperlipidemic Hamster; [1]): 0%
change in vivo at 50 mg/kg (Hyperlipidemic Hamster; [2]): 0%
inhibition at 10 µM (ACAT): 31%
